≈ marks a conversion by molar mass, not a printed value.
Tests used:
Type in all cases: cell-based
[1] = tested on: Enterococcus faecalis CL5244, VanB; experiment: MIC susceptibility test; conditions: Enterococcus faecalis CL5244, VanB; for MIC: read-out: MIC CL5244
Method in brief: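 MTT-based broth microdilution in cation-adjusted Mueller-Hinton broth; two-fold 12-step dilutions […], inoculum 10^6 CFU/mL, 37° C for 24 h.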

[2] = tested on: Methicillin resistant Staphylococcus aureus (ATCC 33591); experiment: MIC susceptibility test, microdilution with MTT readout; conditions: Staphylococcus aureus ATCC3359, Methicillin resistance; for MIC: ATCC 3359 / ATCC 33591 / MRSA, read-out: MIC MRSA
Method in brief: (§1)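 Broth microdilution in cation-adjusted Mueller-Hinton broth, 12-step two-fold series from 5 μg/mL to […], mixed 1:1 with 10^6 CFU/mL cell suspension and incubated 24 h at 37 °C. MTT (1 mg/mL solution) is then added for 30 min (S. aureus, MRSA) or 2 h (E. faecalis strains). MIC = lowest concentration inhibiting growth.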

[3] = tested on: Enterococcus faecalis (ATCC 29212); experiment: as above; conditions: Enterococcus faecalis ATCC29212; for MIC: read-out: MIC EF
Method in brief: as §1

[4] = tested on: Staphylococcus aureus (ATCC 29213); experiment: as above; conditions: Staphylococcus aureus ATCC29213; for MIC: read-out: MIC SA
Method in brief: as §1

[5] = tested on: Bacillus cereus (ATCC 11778); experiment: as above; conditions: for MIC: Bacillus cereus, ATCC11778, read-out: MIC BC; for MIC BC: Bacillus ceres ATCC11778
Method in brief: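 Bacillus cereus ATCC® 11778 susceptibility was measured by broth microdilution in 96-well microplates using Cation Adjusted Mueller-Hinton broth. Samples were diluted two-fold from 5 μg/mL over 12 steps. Each well combined 100 μL of cell suspension (10^6 CFU/mL) with 100 μL of antibiotic solution and was incubated at 37° C. for 24 h. Then 50 μL of MTT (1 mg/mL) was added for 30 min, and MIC (μg/mL) was read as the lowest concentration inhibiting growth.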

[6] = tested on: Enterococcus faecium CL5137, VanA; experiment: MIC susceptibility test; conditions: Enterococcus faecium CL5137, VanA; for MIC: read-out: MIC CL5137
[7] = tested on: gentamicin, streptmycin, vancomycin resistant Enterococcus faecalis (ATCC 51299); experiment: microbe, parasite or virus in culture; conditions: for MIC: Enterococcus faecalis, ATCC51299, read-out: MIC VREF; for MIC VREF: Enterococcus faecalis ATCC51299, vancomycin resistance
Method in brief: as §1

Structure (SMILES)	MIC [1] [µg/mL]	MIC [2] [µg/mL]	MIC [3] [µg/mL]	MIC [4] [µg/mL]	MIC [5] [µg/mL]	MIC [6] [µg/mL]	MIC [7] [µg/mL]	MIC CL5244 [1]	MIC MRSA [2] [µg/mL]	MIC EF [3] [µg/mL]	MIC SA [4] [µg/mL]	MIC BC [5] [µg/mL]	MIC CL5137 [6] [µg/mL]	MIC VREF [7] [µg/mL]
CCCCCCCCCCNC1(C)CC(OC2C(Oc3c4cc5cc3Oc3ccc(cc3Cl)[C@@H](O)[C@@H](NC(=O)[C@H](CC(C)C)NC)C(=O)N[C@@H](CC(N)=O)C(=O)N[C@H]5C(=O)NC3C(=O)N[C@H](C(=O)N[C@@H](C(=O)O)c5cc(O)cc(O)c5-c5cc3ccc5O)[C@H](O)c3ccc(c(Cl)c3)O4)OC(CSc3nc4cc(Cl)ccc4s3)C(O)C2O)OC(C)C1O (some centres unmarked) [LXXX, N-Decylvancosamine-glucose-C6-2-thio-5-chlorobenzothiazole Vancomycin]	2.4 (≈ 1.35 µM)	5 (≈ 2.82 µM)	1.3 (≈ 0.733 µM)	> 5	5 (≈ 2.82 µM)	50 (≈ 28.2 µM)	2.5 (≈ 1.41 µM)							
CCCCCCCCCCNC1(C)CC(OC2C(Oc3c4cc5cc3Oc3ccc(cc3Cl)[C@@H](O)[C@@H](NC(=O)[C@H](CC(C)C)NC)C(=O)N[C@@H](CC(N)=O)C(=O)N[C@H]5C(=O)NC3C(=O)N[C@H](C(=O)N[C@@H](C(=O)O)c5cc(O)cc(O)c5-c5cc3ccc5O)[C@H](O)c3ccc(c(Cl)c3)O4)OC(CSc3nc(-c4ccccc4)c(-c4ccccc4)o3)C(O)C2O)OC(C)C1O (some centres unmarked) [LXXXII, N-Decylvancosamine-glucose-C6-2-thio-4,5-diphenyloxazole Vancomycin]	13 (≈ 7.12 µM)	> 5	> 5	> 5	> 5	> 50	> 5							
CN[C@@H](CC(C)C)C(=O)N[C@H]1C(=O)N[C@@H](CC(N)=O)C(=O)N[C@H]2C(=O)NC3C(=O)N[C@H](C(=O)N[C@@H](C(=O)O)c4cc(O)cc(O)c4-c4cc3ccc4O)[C@H](O)c3ccc(c(Cl)c3)Oc3cc2cc(c3OC2OC(CSc3nnc(N)s3)C(O)C(O)C2OC2CC(C)(NCc3ccc(-c4ccc(Cl)cc4)cc3)C(O)C(C)O2)Oc2ccc(cc2Cl)[C@H]1O (some centres unmarked) [LXXXIII, N-4-(4-Chlorophenyl)benzylvancosamine-glucose-C6-2-thio-5-amino-1,3,4-thiadiazole Vancomycin]	0.2 (≈ 0.113 µM)	0.48 (≈ 0.272 µM)	0.16 (≈ 0.0906 µM)	0.48 (≈ 0.272 µM)	0.32 (≈ 0.181 µM)	3.2 (≈ 1.81 µM)	0.32 (≈ 0.181 µM)							
CN[C@@H](CC(C)C)C(=O)N[C@H]1C(=O)N[C@@H](CC(N)=O)C(=O)N[C@H]2C(=O)NC3C(=O)N[C@H](C(=O)N[C@@H](C(=O)O)c4cc(O)cc(O)c4-c4cc3ccc4O)[C@H](O)c3ccc(c(Cl)c3)Oc3cc2cc(c3OC2OC(CSc3nnc(NN)n3N)C(O)C(O)C2OC2CC(C)(NCc3ccc(-c4ccc(Cl)cc4)cc3)C(O)C(C)O2)Oc2ccc(cc2Cl)[C@H]1O (some centres unmarked) [LXXXIV, N-4-(4-Chlorophenyl)benzylvancosamine-glucose-C6-5-thio-4-amino-3-hydrazino-1,2,4-triazole Vancomycin]	0.2 (≈ 0.112 µM)	0.48 (≈ 0.27 µM)	0.12 (≈ 0.0675 µM)	0.63 (≈ 0.354 µM)	0.08 (≈ 0.045 µM)	6.3 (≈ 3.54 µM)	0.16 (≈ 0.09 µM)							
CN[C@@H](CC(C)C)C(=O)N[C@H]1C(=O)N[C@@H](CC(N)=O)C(=O)N[C@H]2C(=O)NC3C(=O)N[C@H](C(=O)N[C@@H](C(=O)O)c4cc(O)cc(O)c4-c4cc3ccc4O)[C@H](O)c3ccc(c(Cl)c3)Oc3cc2cc(c3OC2OC(CSc3nc(C)cc(O)n3)C(O)C(O)C2OC2CC(C)(NCc3ccc(-c4ccc(Cl)cc4)cc3)C(O)C(C)O2)Oc2ccc(cc2Cl)[C@H]1O (some centres unmarked) [LXXXV, N-4-(4-Chlorophenyl)benzylvancosamine-glucose-C6-2-thio-4-hydroxy-6-methylpyrimidine Vancomycin]	0.4 (≈ 0.225 µM)	1.3 (≈ 0.733 µM)	0.32 (≈ 0.18 µM)	1.9 (≈ 1.07 µM)	1.3 (≈ 0.733 µM)	6.3 (≈ 3.55 µM)	0.32 (≈ 0.18 µM)							
CN[C@@H](CC(C)C)C(=O)N[C@H]1C(=O)N[C@@H](CC(N)=O)C(=O)N[C@H]2C(=O)NC3C(=O)N[C@H](C(=O)N[C@@H](C(=O)O)c4cc(O)cc(O)c4-c4cc3ccc4O)[C@H](O)c3ccc(c(Cl)c3)Oc3cc2cc(c3OC2OC(CSc3nnc(C)c(O)n3)C(O)C(O)C2OC2CC(C)(NCc3ccc(-c4ccc(Cl)cc4)cc3)C(O)C(C)O2)Oc2ccc(cc2Cl)[C@H]1O (some centres unmarked) [LXXXVI, N-4-(4-Chlorophenyl)benzylvancosamine-glucose-C6-2-thio-6-azathymine Vancomycin]	0.4 (≈ 0.225 µM)	1 (≈ 0.563 µM)	0.12 (≈ 0.0676 µM)	1 (≈ 0.563 µM)	0.32 (≈ 0.18 µM)	3.2 (≈ 1.8 µM)	0.16 (≈ 0.0901 µM)							
CN[C@@H](CC(C)C)C(=O)N[C@H]1C(=O)N[C@@H](CC(N)=O)C(=O)N[C@H]2C(=O)NC3C(=O)N[C@H](C(=O)N[C@@H](C(=O)O)c4cc(O)cc(O)c4-c4cc3ccc4O)[C@H](O)c3ccc(c(Cl)c3)Oc3cc2cc(c3OC2OC(CSc3nc(-c4ccccc4)c(-c4ccccc4)o3)C(O)C(O)C2OC2CC(C)(NCc3ccc(-c4ccc(Cl)cc4)cc3)C(O)C(C)O2)Oc2ccc(cc2Cl)[C@H]1O (some centres unmarked) [LXXXVII, N-4-(4-Chlorophenyl)benzylvancosamine-glucose-C6-2-thio-4,5-diphenyloxazole Vancomycin]	10 (≈ 5.3 µM)	> 5	5 (≈ 2.65 µM)	> 5	> 5	50 (≈ 26.5 µM)	5 (≈ 2.65 µM)							
CN[C@@H](CC(C)C)C(=O)N[C@H]1C(=O)N[C@@H](CC(N)=O)C(=O)N[C@H]2C(=O)NC3C(=O)N[C@H](C(=O)N[C@@H](C(=O)O)c4cc(O)cc(O)c4-c4cc3ccc4O)[C@H](O)c3ccc(c(Cl)c3)Oc3cc2cc(c3OC2OC(CSc3nccc(C(F)(F)F)n3)C(O)C(O)C2OC2CC(C)(N)C(O)C(C)O2)Oc2ccc(cc2Cl)[C@H]1O (some centres unmarked) [LX]	> 50	5 (≈ 3.1 µM)	2.5 (≈ 1.55 µM)	5 (≈ 3.1 µM)	5 (≈ 3.1 µM)	> 50	2.5 (≈ 1.55 µM)							
CNC(CC(C)C)C(=O)NC1C(=O)NC(CC(N)=O)C(=O)NC2C(=O)NC3C(=O)NC(C(=O)NC(C(=O)O)c4cc(O)cc(O)c4-c4cc3ccc4O)C(O)c3ccc(c(Cl)c3)Oc3cc2cc(c3OC2OC(CO)C(O)C(O)C2OC2CC(C)(NCc3ccc(-c4ccc(Cl)cc4)cc3)C(O)C(C)O2)Oc2ccc(cc2Cl)C1O (centres unmarked) [N-4-(4-chlorophenyl)benzyl vancomycin, reference compound]								0.4 µg/mL (≈ 0.242 µM)	0.08 (≈ 0.0485 µM)	0.08 (≈ 0.0485 µM)	0.16 (≈ 0.097 µM)	0.08 (≈ 0.0485 µM)	13 (≈ 7.88 µM)	0.08 (≈ 0.0485 µM)
CCCCCCCCCCNC1(C)CC(OC2C(Oc3c4cc5cc3Oc3ccc(cc3Cl)C(O)C3NC(=O)C(NC(=O)C5NC(=O)C(CC(N)=O)NC(=O)C(NC(=O)C(CC(C)C)NC)C(O)c5ccc(c(Cl)c5)O4)c4ccc(O)c(c4)-c4c(O)cc(O)cc4C(C(=O)O)NC3=O)OC(CO)C(O)C2O)OC(C)C1O (centres unmarked) [N-decyl vancosamine vancomycin, reference compound]								3.2 µg/mL (≈ 2.01 µM)	0.48 (≈ 0.302 µM)	0.16 (≈ 0.101 µM)	0.63 (≈ 0.396 µM)	0.32 (≈ 0.201 µM)	25 (≈ 15.7 µM)	0.32 (≈ 0.201 µM)
CCCCCCCCCCNC1(C)CC(OC2C(Oc3c4cc5cc3Oc3ccc(cc3Cl)C(O)C3NC(=O)C(NC(=O)C5NC(=O)C(CC(N)=O)NC(=O)C(NC(=O)C(CC(C)C)NC)C(O)c5ccc(c(Cl)c5)O4)c4ccc(O)c(c4)-c4c(O)cc(O)cc4C(C(=O)O)NC3=O)OC(CI)C(O)C2O)OC(C)C1O (centres unmarked) [Vancosamine-N-decyl-glucose-C6-iodo-vancomycin]								0.4< μg/mL	0.32 (≈ 0.188 µM)	0.08 (≈ 0.0471 µM)	1.3 (≈ 0.765 µM)	1.0 (≈ 0.588 µM)	6.3 (≈ 3.71 µM)	0.12 (≈ 0.0706 µM)
